Where two headings read alike, the source gives them in different places.
Target: 15-PGDH/HPGD (Homo sapiens (Human), UniProt P15428)
Assay: hPGDH inhibitor screening biochemical assay
Procedure, shortened: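 10 nM recombinant 15-PGDH was preincubated with compound (10-point) for 10 min at 37° C. in 50 mM Tris-HCl pH 7.5, 0.01% Tween 20. Then 15 μM PGE2 and 0.25 mM NAD+ were added for 10 min at rt. NADH fluorescence (ex/em 340/485 nm) gave % inhibition versus 1% DMSO and a four-parameter IC50.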

[1] = 10 nM 15-PGDH/HPGD, 15 μM PGE2, 0.25 mM NAD, read-out: hPGDH: Average IC50
[2] = Table 1, PGDH inhibitors with a 6-5 ring core, read-out: hPGDH: IC50
[3] = Table 2, PGDH inhibitors with a phenyl core, read-out: hPGDH: IC50

15-PGDH/HPGD, sequence (P15428 whole entry): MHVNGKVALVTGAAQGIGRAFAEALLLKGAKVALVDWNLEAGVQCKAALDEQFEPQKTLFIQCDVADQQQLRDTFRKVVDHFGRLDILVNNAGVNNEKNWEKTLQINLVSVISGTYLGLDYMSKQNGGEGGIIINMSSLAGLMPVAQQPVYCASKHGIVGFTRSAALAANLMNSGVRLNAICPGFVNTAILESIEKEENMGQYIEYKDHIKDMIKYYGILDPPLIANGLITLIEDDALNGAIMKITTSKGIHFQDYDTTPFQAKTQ

Row | Structure (SMILES) | IC50 [1] [nM] | IC50 [2] [nM] | also measured
1 | COc1ccc(-n2cnc3cc(C(=O)N4CCC(F)(F)CC4)cnc32)cc1 [drawing 78] |  | 57.4 | 
2 | COc1ccc(-n2cnc3cc(C(=O)N4CCC(F)CC4)cnc32)cc1 [drawing 79] |  | 19.5 | 
3 | COc1ccc(-n2cnc3cc(C(=O)N4CCCCC4)cnc32)cc1 [drawing 80] |  | 20.1 | 
4 | O=C(c1cnc2c(ccn2-c2cnccn2)c1)N1CCCCC1 [drawing 81] |  | 0.6 | 
5 | O=C(c1ccc2c(c1)ncn2-c1ccc(O)c(Cl)c1)N1CCCCC1 [drawing 82] |  | 2.5 | 
6 | O=C(c1ccc2c(c1)ncn2-c1cccc(Cl)c1)N1CCC(F)(F)C1 [drawing 83] |  | 1260 | 
7 | O=C(c1ccc2c(c1)ncn2-c1cccc(Cl)c1)N1CCC(O)C1 (stereo not drawn) [drawing 84] |  | 2870 | 
8 | NC(=O)CCc1nc2cc(C(=O)N3CCCCC3)ccc2n1-c1cccc(Cl)c1 [drawing 85] |  | 44.9 | 
9 | O=C1CCN(C(=O)c2ccc3c(c2)ncn3-c2cccc(Cl)c2)C1 [drawing 88] |  | 4540 | 
10 | Cc1nc2cc(C(=O)N3CCCCC3)ccc2n1-c1cccc(Cl)c1 [drawing 89] |  | 5.6 | 
11 | O=C(c1ccc2c(c1)ncn2-c1cccc(Cl)c1)N1CCC(Cl)C1 (stereo not drawn) [drawing 90] |  | 64.7 | 
12 | O=C(c1ccn2c(-c3cccc(Cl)c3)cnc2c1)N1CCCCC1 [drawing 93] |  | 5.7 | 
13 | O=C(c1ccc2c(c1)ncn2-c1cccc(Cl)c1)N1CCC(F)(F)CC1 [drawing 96] |  | 12.2 | 
14 | O=C(c1ccc2c(c1)ncn2-c1cccc(Cl)c1)N1CC2CCC(C2)C1 [drawing 97] |  | 46.6 | 
15 | O=C(c1ccc2c(c1)ncn2-c1cccc(Cl)c1)N1CCCCC1 [drawing 98] |  | 2.7 | 
16 | O=C(c1ccc2c(c1)ncn2-c1cccc(Cl)c1)N1CC2(CCC2)C1 [drawing 99] |  | 43.9 | 

Row | Structure (SMILES) | IC50 [1] [nM] | IC50 [2] [nM] | also measured
17 | O=C(c1ccc2c(c1)ncn2-c1cccc(Cl)c1)N1CCCCCC1 [drawing 101] |  | 3.2 | 
18 | O=C(c1ccc2c(c1)ncn2-c1cccc(Cl)c1)N1CC2CCCC2C1 (stereo not drawn) [drawing 102] |  | 24.9 | 
19 | O=C(c1ccc2c(c1)c(Cl)cn2-c1cccc(Cl)c1)N1CCCCC1 [drawing 104] |  | 10.6 | 
20 | O=C(c1cnc2c(c1)ncn2-c1cccc(Cl)c1)N1CCCCC1 [drawing 106] |  | 12.8 | 
21 | O=C(c1cnc2c(-c3cccc(Cl)c3)cnn2c1)N1CCCCC1 [drawing 107] |  | 49.3 | 
22 | O=C(c1ccc2c(c1)nnn2-c1cccc(Cl)c1)N1CCCCC1 [drawing 108] |  | 3.1 | 
23 | COc1ccc(-n2cnc3cc(C(=O)N4CCC(F)CC4)ccc32)cc1 [drawing 109] |  | 43.7 | 
24 | COc1ccc(-n2cnc3cc(C(=O)N4CCCCC4)ccc32)cc1 [drawing 110] |  | 6.4 | 
25 | O=C(c1ccc2c(cnn2-c2cccc(Cl)c2)c1)N1CCCCC1 [drawing 111] |  | 5.8 | 
26 | O=C(c1ccc2c(ccn2-c2cccc(Cl)c2)c1)N1CCCCC1 [drawing 112] |  | 0.5 | 
27 | COc1cc(C(=O)N2CCCCC2)ccc1COc1ccccc1Cl [drawing 115] |  |  | IC50 [3]: 8.5 nM
28 | COc1ccccc1C(=O)N(C)c1ccc(C(=O)N2CCCCC2)cc1 [drawing 116] |  |  | IC50 [3]: 2280 nM
29 | O=C(c1ccc(COc2ccccc2Cl)cc1)N1CCCCC1 [drawing 117] |  |  | IC50 [3]: 18.6 nM
30 | COc1ccccc1C(=O)Nc1ccc(C(=O)N2CCCCC2)cc1 [drawing 118] |  |  | IC50 [3]: 27.1 nM
31 | O=C(c1ccc(COc2ccccc2Br)cc1)N1CCCCC1 [drawing 120] |  |  | IC50 [3]: 3.1 nM

Now from value to compound, other results behind:

Row | IC50 [1] [nM] | IC50 [2] [nM] | Structure (SMILES) | also measured
32 | < 100 |  | COc1ccc(-n2nnc3cc(C(=O)N4CCCCC4)ccc32)cc1 [A-313, (1-(4-methoxyphenyl)-1H-benzo[d][1,2,3]triazol-5-yl)(piperidin-1-yl)methanone] | 
33 | < 100 |  | O=C(c1cnc2c(ccn2-c2ccc3c(c2)OC(F)(F)O3)c1)N1CCCCC1 [A-317] | 
34 | ≥ 1000 |  | O=C(c1cnc2c(ccn2C2CCC(F)(F)CC2)c1)N1CCCCC1 [A-320] | 
35 | < 100 |  | COc1ccc(-n2ccc3c(C)c(C(=O)N4CCCCC4)cnc32)cc1 [A-321] | 
36 | < 100 |  | COc1ccc(-n2ccc3c(C#N)c(C(=O)N4CCCCC4)cnc32)cc1 [A-323, 1-(4-methoxyphenyl)-5-(piperidine-1-carbonyl)-1H-pyrrolo[2,3-b]pyridine-4-carbonitrile] | 
37 | < 100 |  | COc1ccc(-n2ccc3c(N)c(C(=O)N4CCCCC4)cnc32)cc1 [A-324, (4-amino-1-(4-methoxyphenyl)-1H-pyrrolo[2,3-b]pyridin-5-yl)(piperidin-1-yl)methanone] | 
38 | < 100 |  | O=C(c1ccc2c(cnn2-c2cncc(Cl)c2)c1)N1CCCCC1 [A-325] | 
39 | < 100 |  | COc1ccc(-n2c(CCC(C)(C)O)cc3cc(C(=O)N4CCCCC4)cnc32)cc1 [A-326, (2-(3-hydroxy-3-methylbutyl)-1-(4-methoxyphenyl)-1H-pyrrolo[2,3-b]pyridin-5-yl)(piperidin-1-yl)methanone] | 
40 | < 100 |  | CN(C)c1ccc(-n2ccc3cc(C(=O)N4CCC(F)CC4)cnc32)cc1 [A-327] | 
41 | < 100 |  | O=C(c1cnc2c(ccn2-c2cncc(-c3n[nH]c(C4CC4)n3)c2)c1)N1CCC(F)(F)CC1 [A-332, (1-(5-(5-cyclopropyl-1H-1,2,4-triazol-3-yl)pyridin-3-yl)-1H-pyrrolo[2,3-b]pyridin-5-yl)(4,4-difluoropiperidin-1-yl)methanone] | 
42 | < 100 |  | O=C(c1cnc2c(ccn2-c2ccc(-c3n[nH]c(C4CC4)n3)nc2)c1)N1CCC(F)(F)CC1 [A-333, (1-(6-(5-cyclopropyl-1H-1,2,4-triazol-3-yl)pyridin-3-yl)-1H-pyrrolo[2,3-b]pyridin-5-yl)(4,4-difluoropiperidin-1-yl)methanone] | 
43 | < 100 |  | O=C(c1cnc2c(ccn2-c2ccc(-c3nnc(C(F)(F)F)[nH]3)nc2)c1)N1CCC(F)(F)CC1 [A-334, (4,4-Difluoropiperidin-1-yl)(1-(6-(5-(trifluoromethyl)-4H-1,2,4-triazol-3-yl)pyridin-3-yl)-1H-pyrrolo[2,3-b]pyridin-5-yl)methanone] | 
44 | < 100 |  | CC(C)(C)c1ccc(NC(=O)c2cncc(-n3ccc4cc(C(=O)N5CCC(F)(F)CC5)cnc43)c2)cn1 [A-335, N-(6-(tert-butyl)pyridin-3-yl)-5-(5-(4,4-difluoropiperidine-1-carbonyl)-1H-pyrrolo[2,3-b]pyridin-1-yl)nicotinamide] | 
45 | < 100 |  | CC(C)(O)CCc1cc2cc(C(=O)N3CCC(F)(F)CC3)cnc2n1-c1ccc(C(=O)O)cc1 [A-336, 4-(5-(4,4-difluoropiperidine-1-carbonyl)-2-(3-hydroxy-3-methylbutyl)-1H-pyrrolo[2,3-b]pyridin-1-yl)benzoic acid] | 
46 | < 100 |  | Cc1nc(-c2ccc(-n3c(CCC(C)(C)O)cc4cc(C(=O)N5CCC(F)(F)CC5)cnc43)cc2)no1 [A-337, (4,4-difluoropiperidin-1-yl)(2-(3-hydroxy-3-methylbutyl)-1-(4-(5-methyl-1,2,4-oxadiazol-3-yl)phenyl)-1H-pyrrolo[2,3-b]pyridin-5-yl)methanone] | 
47 | < 100 |  | C[C@H]1CCCN(C(=O)c2cnc3c(ccn3-c3ccc(C(=O)O)cc3)c2)C1 [A-339, (S)-4-(5-(3-methylpiperidine-1-carbonyl)-1H-pyrrolo[2,3-b]pyridin-1-yl)benzoic acid] | 
48 | ≥ 1000 |  | COCCc1nc2cc(C(=O)N3CCC(F)CC3)cnc2n1-c1ccc(OC)cc1 [A-342] | 
49 | < 100 |  | NC(=O)c1cncc(-n2ccc3cc(C(=O)N4CCC(F)CC4)cnc32)c1 [A-346] | 
50 | < 100 |  | NC(=O)c1ccc(-n2ccc3cc(C(=O)N4CCC(F)CC4)cnc32)cn1 [A-347] | 
51 | < 100 |  | NC(=O)c1cncc(-n2ccc3cc(C(=O)N4CCCCC4)cnc32)c1 [A-348] | 
52 | < 100 |  | CNC(=O)c1cncc(-n2ccc3cc(C(=O)N4CCCCC4)cnc32)c1 [A-349] | 
53 | < 100 |  | CN(C)C(=O)c1cncc(-n2ccc3cc(C(=O)N4CCCCC4)cnc32)c1 [A-350] | 
54 | < 100 |  | N#Cc1cncc(-n2ccc3cc(C(=O)N4CCCCC4)cnc32)c1 [A-351] | 
